This passage reports IC50 and IC90 results from ChEMBL document CHEMBL4483862, “Open-source discovery of chemical leads for next-generation chemoprotective antimalarials” (2018).

The IC50 is the concentration that gives 50% inhibition. A word on the IC90: it is the concentration needed for an effect of 90%.

The assay deals with Plasmodium berghei. Briefly: Luciferase/luciferin-expressing antifolate-resistant parasites were used to infect a culture of HepG2 cells that were pre-incubated with compounds. Infected hepatocytes emit light due to the luciferase reaction. Assay results are presented as the percent inhibition of light emission compared to control. […]. The class given is functional. The settings on record: sporozoite; for IC90: read-out: LUCIFERASE INFECTION ASSAY - IC90.

Setting [1] is: read-out: LUCIFERASE INFECTION ASSAY - IC50.

Turning to `O=C(Nc1ccc(-c2csc(N3CCOCC3)n2)cc1)c1ccc(Br)c([N+](=O)[O-])c1`, the IC90 is above 10 µM. Further, under setting [1], the IC50 was above 10 µM.
In the case of `COc1ccc(CCNc2nc(CN3CCCC3)nc3sc(C)c(C)c23)cc1`, the IC90 is above 10 µM. Moreover, where the note is “FFLUC_HILL_SLOPE 4.5, FFLUC_R_SQUARED 0.668, PBLUC_HILL_SLOPE 16.9, PBLUC_R_SQUARED 0.0613, read-out: LUCIFERASE INFECTION ASSAY - IC50”, the concentration for half-maximal inhibition (IC50) was 9.78 µM.
As to `CC(C)n1ncc2cc(C(=O)Nc3ccc4oc5ccccc5c4c3)cnc21`, the concentration for an effect of 90% (IC90) was 6.74 µM. In addition, the IC50 (HEPG2TOX_HILL_SLOPE 0.893, HEPG2TOX_R_SQUARED 0.928, PBLUC_HILL_SLOPE 1.69, PBLUC_R_SQUARED 0.728, read-out: LUCIFERASE INFECTION ASSAY - IC50) stood at 1.84 µM.
Consider `COc1ccc(OC)c(CCNc2nc3cnc(-c4cccc(NS(C)(=O)=O)c4)cc3n2C)c1`, for which the IC90 was above 10 µM. Moreover, under setting [1], the IC50 is above 10 µM.
`Cc1nc(SCC(=O)N2CCC(c3nc4ccccc4o3)CC2)c2c(C)c(C)sc2n1`: the IC90 is above 10 µM. The IC50 under setting [1] was above 10 µM.
Regarding `O=C1C=CC(=O)N1c1cc(Cl)cc(Cl)c1`, the concentration for an effect of 90% (IC90) was above 13.6 µM. The half-inhibitory concentration (IC50) (FFLUC_HILL_SLOPE 11.6, FFLUC_R_SQUARED 0.448, PBLUC_HILL_SLOPE 9.84, PBLUC_R_SQUARED 0.0939, read-out: LUCIFERASE INFECTION ASSAY - IC50) is above 13.6 µM.
As to `COc1cc(-c2cnc3ccc(Cc4ccccc4)nn23)cc(OC)c1OC`, the IC90 was above 10 µM. For the same compound, the half-inhibitory concentration (IC50) (HEPG2TOX_HILL_SLOPE 1.4, HEPG2TOX_R_SQUARED 0.659, PBLUC_HILL_SLOPE 16.5, PBLUC_R_SQUARED 0.342, read-out: LUCIFERASE INFECTION ASSAY - IC50) is 9.26 µM.
For `O=S(=O)(c1ccc(C(F)(F)F)cn1)c1cccs1`, the IC90 was above 11.3 µM. In addition, the IC50 (PBLUC_HILL_SLOPE 0.531, PBLUC_R_SQUARED 0.132, read-out: LUCIFERASE INFECTION ASSAY - IC50) is above 11.3 µM.
As to `COc1ccc(-c2cnc3cnc(-c4cccc(NS(C)(=O)=O)c4)cn23)cc1`, the IC90 worked out at 3.7 µM. For the same compound, where the note is “PBLUC_HILL_SLOPE 9.6, PBLUC_R_SQUARED 0.49, read-out: LUCIFERASE INFECTION ASSAY - IC50”, the half-maximal inhibitory concentration (IC50) came out at 2.94 µM.
In the case of `Cc1onc(-c2c(Cl)cccc2Cl)c1C(=O)N1CCCc2ccccc21`, the IC90 is above 8.52 µM. The IC50 (HEPG2TOX_HILL_SLOPE 0.734, HEPG2TOX_R_SQUARED 0.611, PBLUC_HILL_SLOPE 1.71, PBLUC_R_SQUARED 0.613, read-out: LUCIFERASE INFECTION ASSAY - IC50) came to 3.64 µM.
As to `CCN(CC)S(=O)(=O)c1ccc(Cl)c(NC(=O)CSc2nnc(-c3ccc(F)cc3)c3ccccc23)c1`, the 90% effect concentration (IC90) was above 10 µM. In addition, where the note is “FFLUC_HILL_SLOPE 11.3, FFLUC_R_SQUARED 0.167, read-out: LUCIFERASE INFECTION ASSAY - IC50”, the concentration for half-maximal inhibition (IC50) is above 10 µM.
Regarding `O=C(Nc1nccs1)C1CCCNC1` (stereo unspecified), the concentration for an effect of 90% (IC90) was above 10 µM. The 50% inhibitory concentration (IC50) (PBLUC_HILL_SLOPE 12.1, PBLUC_R_SQUARED 0.548, read-out: LUCIFERASE INFECTION ASSAY - IC50) was 8.7 µM.
Turning to `Cc1ccc(C2c3c(-c4cc(C)cc(C)c4O)n[nH]c3C(=O)N2CCCO)cc1` (stereo unspecified), the 90% effect concentration (IC90) is above 8.43 µM. Moreover, for the setting “HEPG2TOX_HILL_SLOPE 0.468, HEPG2TOX_R_SQUARED 0.76, PBLUC_HILL_SLOPE 1.88, PBLUC_R_SQUARED 0.575, read-out: LUCIFERASE INFECTION ASSAY - IC50”, the IC50 is 5.49 µM.
On to `Cc1ccc(C(C)C)c(OCC(=O)Nc2ccc(I)c(C)n2)c1`, for which the IC90 was above 10 µM. For the same compound, the IC50 (FFLUC_HILL_SLOPE 2.58, FFLUC_R_SQUARED 0.455, read-out: LUCIFERASE INFECTION ASSAY - IC50) is above 10 µM.
Take `Cc1cc(C(=O)/C(C#N)=N/Nc2ccc(Cl)cc2)n(C(C)(C)C)n1`: the concentration for an effect of 90% (IC90) is 7.21 µM. Moreover, where the note is “HEPG2TOX_HILL_SLOPE 0.671, HEPG2TOX_R_SQUARED 0.767, PBLUC_HILL_SLOPE 2.12, PBLUC_R_SQUARED 0.724, read-out: LUCIFERASE INFECTION ASSAY - IC50”, the concentration for half-maximal inhibition (IC50) is 2.56 µM.
Consider `Cc1nc(SCc2ccc(C(F)(F)F)cc2)n(C)c(=O)c1Oc1ccc(F)cc1`, for which the IC90 was above 7.78 µM. For the same compound, the IC50 under setting [1] is above 7.78 µM.
Consider `CCCOc1cccc(NC(=O)c2cc(CC(C)C)oc2C)c1`, for which the concentration for an effect of 90% (IC90) came to 10.1 µM. Moreover, the concentration for half-maximal inhibition (IC50) (PBLUC_HILL_SLOPE 5.71, PBLUC_R_SQUARED 0.294, read-out: LUCIFERASE INFECTION ASSAY - IC50) was 6.86 µM.
Take `COc1ccc(C2=Cc3nc4ccccc4n3C3(C(F)(F)F)OC(c4ccccc4)=NN23)cc1` (stereo unspecified): the IC90 was above 10 µM. Moreover, under “FFLUC_HILL_SLOPE 13.2, FFLUC_R_SQUARED 0.193, HEPG2TOX_HILL_SLOPE 11.1, HEPG2TOX_R_SQUARED 0.974, PBLUC_HILL_SLOPE 14.1, PBLUC_R_SQUARED 0.236, read-out: LUCIFERASE INFECTION ASSAY - IC50”, the half-inhibitory concentration (IC50) came out at 9.44 µM.
Consider `CCOC(=O)c1oc2ccccc2c1COC(=O)c1ccc(C)c(NC(=O)c2ccco2)c1`, for which the IC90 was 7.27 µM. Further, the 50% inhibitory concentration (IC50) (PBLUC_HILL_SLOPE 12.1, 4.42, PBLUC_R_SQUARED 0.718, 0.471, read-out: LUCIFERASE INFECTION ASSAY - IC50) amounted to 6.8 µM.
Turning to `CCC(C)c1ccc(NC(=O)/C(C#N)=C/c2cc3c(cc2[N+](=O)[O-])OCO3)cc1` (stereo unspecified), the IC90 was above 10 µM. Further, the half-inhibitory concentration (IC50) (HEPG2TOX_HILL_SLOPE 0.229, HEPG2TOX_R_SQUARED 0.341, PBLUC_HILL_SLOPE 0.634, PBLUC_R_SQUARED 0.752, read-out: LUCIFERASE INFECTION ASSAY - IC50) amounted to 2.46 µM.
As to `CC(C)(C)CNC(=S)N/N=C/c1cc(Cl)cc(Cl)c1O`, the IC90 was above 9.87 µM. Besides, the 50% inhibitory concentration (IC50) (HEPG2TOX_HILL_SLOPE 2.41, HEPG2TOX_R_SQUARED 0.728, PBLUC_HILL_SLOPE 9.45, PBLUC_R_SQUARED 0.267, read-out: LUCIFERASE INFECTION ASSAY - IC50) is 9.07 µM.
`CN(CC(=O)Nc1ccc(F)c(F)c1F)C(C(=O)Nc1ccc(Cl)c(C(F)(F)F)c1)c1ccccc1` (stereo unspecified): the concentration for an effect of 90% (IC90) is above 10 µM. Under setting [1], the IC50 came out at 6.74 µM.
On to `Cc1cccc(NC(=O)CSc2nc3ccccc3c3nc(C)nn23)c1`, for which the IC90 was 0.789 µM. Also, the IC50 (HEPG2TOX_HILL_SLOPE 1.51, HEPG2TOX_R_SQUARED 0.99, PBLUC_HILL_SLOPE 1.83, PBLUC_R_SQUARED 0.897, read-out: LUCIFERASE INFECTION ASSAY - IC50) was determined as 0.237 µM.
`O=C(NCCC1=CCCCC1)c1ccccc1CN1C(=O)CNC1=O`: the IC90 was above 10 µM. Also, the 50% inhibitory concentration (IC50) under setting [1] was above 10 µM.
Take `Cc1c(NC(=O)c2c(F)cccc2F)cc2c(c1[N+](=O)[O-])C(C)(C)CC2(C)C`: the concentration for an effect of 90% (IC90) was above 8.5 µM. The IC50 (PBLUC_HILL_SLOPE 39, PBLUC_R_SQUARED 0.724, read-out: LUCIFERASE INFECTION ASSAY - IC50) is above 8.5 µM.
With `COc1ccc(/C=C(/C(=O)c2cccs2)N2C=CC=CC2=C(C#N)C#N)cc1`, the IC90 is above 10 µM. Further, the IC50 under setting [1] was above 10 µM.
Take `CCN(CC)c1ccc2cc(/C=N/NC(=O)C34CC5CC(CC(C5)C3)C4)c(=O)oc2c1`: the concentration for an effect of 90% (IC90) is above 10 µM. Besides, the half-maximal inhibitory concentration (IC50) under setting [1] is above 10 µM.
With `Cc1cc(C)n2ncc(C(=O)Nc3cccc(/C=C/c4ccccn4)c3)c2n1`, the 90% effect concentration (IC90) came to 8.17 µM. Moreover, the IC50 (PBLUC_HILL_SLOPE 1.28, PBLUC_R_SQUARED 0.742, read-out: LUCIFERASE INFECTION ASSAY - IC50) worked out at 1.46 µM.
For `CC(C)(C)c1ccc(NC(=O)c2cc(-c3ccccc3)ncn2)cc1`, the concentration for an effect of 90% (IC90) was above 9.96 µM. Further, the half-inhibitory concentration (IC50) (PBLUC_HILL_SLOPE 1.26, PBLUC_R_SQUARED 0.612, read-out: LUCIFERASE INFECTION ASSAY - IC50) came to 2.29 µM.
With `CCCCn1nc(C(=O)NNC(=O)Nc2ccc([N+](=O)[O-])cc2)c2ccccc2c1=O`, the concentration for an effect of 90% (IC90) is above 10 µM. Besides, the IC50 (HEPG2TOX_HILL_SLOPE 2.25, HEPG2TOX_R_SQUARED 0.286, read-out: LUCIFERASE INFECTION ASSAY - IC50) is above 10 µM.
Consider `COCCN1C=C(C(=O)OC)C(c2cccc(O)c2)C(C(=O)OC)=C1`, for which the 90% effect concentration (IC90) is above 9.5 µM. In addition, the concentration for half-maximal inhibition (IC50) under setting [1] was above 9.5 µM.
Turning to `CN1/C(=C\C=N\NC(=O)c2cnccn2)C(C)(C)c2ccccc21`, the IC90 was above 10 µM. The 50% inhibitory concentration (IC50) under setting [1] was above 10 µM.
Take `COc1ccc(O)c(C(=O)NNC(=O)C23CC4CC(CC(C4)C2)C3)c1`: the 90% effect concentration (IC90) is above 10 µM. For the same compound, the half-maximal inhibitory concentration (IC50) (PBLUC_HILL_SLOPE 14.2, PBLUC_R_SQUARED 0.249, read-out: LUCIFERASE INFECTION ASSAY - IC50) was found to be 8.74 µM.
As to `FC(F)(F)Oc1cccc(-c2ccc3ncc(-c4cccnc4)n3n2)c1`, the 90% effect concentration (IC90) amounted to 3.34 µM. The concentration for half-maximal inhibition (IC50) (PBLUC_HILL_SLOPE 3.42, PBLUC_R_SQUARED 0.748, read-out: LUCIFERASE INFECTION ASSAY - IC50) was found to be 1.76 µM.
Consider `CC(C)n1ncc2cc(C(=O)Nc3nc(-c4ccccn4)cs3)cnc21`, for which the IC90 was 2.1 µM. Moreover, the 50% inhibitory concentration (IC50) under setting [1] stood at 1.07 µM.
The matching figures for `O=C(OCc1cccc(Cl)c1)c1cncn1-c1ccccc1`: above 10 µM and above 10 µM.
Turning to `COc1cc(-c2[nH]nc3nccc(-c4ccc(C(C)C)cc4)c23)cc(OC)c1OC`, the IC90 was above 10 µM. Moreover, the half-maximal inhibitory concentration (IC50) (HEPG2TOX_HILL_SLOPE 2.15, HEPG2TOX_R_SQUARED 0.552, PBLUC_HILL_SLOPE 10.1, PBLUC_R_SQUARED 0.355, read-out: LUCIFERASE INFECTION ASSAY - IC50) is 8.21 µM.
`Cc1c(C)n(Cc2ccccc2)c2ncn3nc(-c4cccnc4)nc3c12`: the concentration for an effect of 90% (IC90) is above 9.31 µM. Moreover, under setting [1], the IC50 is above 9.31 µM.
